Consider 1 compound from patent US7879853B2, “4,6-disubstituted pyrimidines and their use as protein kinase inhibitors” (Bayer Schering Pharma AG, priority 2004, dated 2011).

The IC50 is the concentration that gives 50% inhibition.

The structures appear in SMILES notation.

The experiment deals with phosphorylated GSK3 (Ser9) in MCF7 cells. The experiment is described as follows: Cellular pGSK3 assay (pGSK3-ELISA). It is filed as cell-based. Conditions: Homo sapiens, 48 h, read-out: GSK3 inhibition (pGSK3-ELISA): IC50. As for the experimental part:
In order to study the cellular activity of the compounds according to the invention, an ELISA-based assay has been established for the phosphorylated glycogen synthetase kinase 3, GSK3. The assay is based on a solid phase sandwich ELISA that detects endogenous levels of the phosphorylated GSK3 (BioSource International, Inc.; Catalog #KHO0461). A phospho-GSK3 (Ser9) antibody has been coated onto the microwells. After incubation with cell lysates, the coated antibody captures the phosphorylated GSK3 protein. Following extensive washing, GSK3 polyclonal antibody is added to detect the captured phospho-GSK3 protein. HRP-linked […] antibody (anti-rabbit IgG-HRP) is then used to recognize the bound detection antibody. […]
Cells are harvested and lysed with brief vortexing in cell extraction buffer (10 mM Tris, pH 7.4, 100 mM NaCl, 1 mM EDTA, 1 mM EGTA, 1 mM NaF, 20 mM Na4P2O7, 2 mM Na3VO4, 1% Triton X-100, 10% glycerol, 0.1% SDS, 0.5% deoxycholate, 1 mM PMSF). […] The absorbance is measured at 450 nm (Wallac Victor2; Perkin Elmer, USA) within 30 minutes after adding Stop solution. The analysis of the data is performed using a statistical program (Microsoft Excel, USA) and the inhibition of pGSK3 phosphorylation is determined.
For orientation: An ELISA detects its analyte on a solid surface through an enzyme-linked reagent.

As to `CC(C)(N)c1ccc(C(=O)Nc2ccc(Nc3cc(-c4cccc5c4oc4ccccc45)ncn3)cc2)cc1` [Compound 69, 4-(1-Amino-1-methyl-ethyl)-N-[4-(6-dibenzofuran-4-yl-pyrimidin-4-ylamino)-phenyl]-benzamide trifluoracetate], the IC50 was 10 µM.
